US7067535B2, “5-Phenylbenzylamine compounds, process for their production and intermediates for their synthesis” (Tanabe Seiyaku Co., Ltd., priority 2000, dated 2006)
Structures can show the parent of a compound that is named as a salt.

Q: With `COc1ccc(-c2ccc(F)cc2)cc1CN[C@H]1CCCN(Cc2n[nH]c(=S)[nH]2)[C@H]1c1ccccc1` (as salt: hydrochloride) [Example 105, (2S,3S)-1-[5(4H)-thioxo-1,2,4-triazol-3-yl]methyl-2-phenyl-3-[[2-methoxy-5-(4-fluorophenyl)benzyl]amino]piperidinedihydrochloride] as the molecule, how does the melting point read?
A: Its melting point is 180 to 182 °C (dec.).

Q: For `COc1ccc(-c2ccccc2C(F)(F)F)cc1CN[C@H]1CCCN[C@H]1c1ccccc1.Cl.Cl` (racemic), which melting point is on record?
A: Its melting point is 260 to 262 °C.

Q: For `COc1ccc(-c2ccc(F)cc2)cc1CN[C@H]1CCCN(Cc2n[nH]c(=O)[nH]2)[C@H]1c1ccccc1` (as salt: hydrochloride) [Example 104, (2S,3S)-1-[5(4H)-oxo-1,2,4-triazol-3-yl]methyl-2-phenyl-3-[[2-methoxy-5-(4-fluorophenyl)benzyl]amino]piperidine dihydrochloride], which melting point is on record?
A: The melting point was 198 to 200 °C (dec.).

Q: For `COc1ccc(-c2ccc(F)cc2)cc1[C@H](C)N[C@H]1CCCN[C@H]1c1ccccc1` (as salt: hydrochloride) [Example 102, [2-methoxy-5-(4-fluorophenyl)-(S)-α-methylbenzyl][(2S,3S)-2-phenylpiperidin-3-yl]amine dihydrochloride], which melting point is on record?
A: Its melting point is 274 to 278 °C (dec.).

Q: Which melting point does the source give for `COc1ccc(-c2ccc(F)cc2)cc1CN[C@H]1CCCN(Cc2nnc[nH]2)[C@H]1c1ccccc1` (as salt: hydrochloride) [Example 103, (2S,3S)-1-(1,2,4-triazol-3-ylmethyl)-2-phenyl-3-[[2-methoxy-5-(4-fluorophenyl)benzyl]amino]piperidine trihydrochloride] here?
A: Its melting point is 208 to 210 °C (dec.).

Q: Which melting point does the source give for `COc1ccc(-c2ccc(F)cc2)cc1[C@@H](C)N[C@H]1CCCN[C@H]1c1ccccc1` (as salt: hydrochloride) [Example 101, [2-methoxy-5-(4-fluorophenyl)-(R)-α-methylbenzyl][(2S,3S)-2-phenylpiperidin-3-yl]amine dihydrochloride] here?
A: The melting point was 200 to 204 °C (dec.).

Q: With `COc1ccc(-c2ccc(C#N)cc2)cc1CN[C@H]1CCCN[C@H]1c1ccccc1` [Example 16, [2-methoxy-5-(4-cyanophenyl)benzyl][(2S,3S)-2-phenylpiperidin-3-yl]amine] as the molecule, how does the melting point read?
A: Its melting point is 277 to 278 °C (dec.).

Q: With `COc1ccc(-c2ccc(C#N)cc2)cc1CN[C@H]1CC[C@@H](C)N[C@H]1c1ccccc1` [Example 113, [2-methoxy-5-(4-cyanophenyl)benzyl][(2S,3S,6R)6-methyl-2-phenylpiperidin-3-yl]amine] as the molecule, how does the melting point read?
A: The melting point was 298 to 300 °C.

Q: Which melting point does the source give for `COc1ccc(-c2ccc(C#N)cc2F)cc1CN[C@H]1CCCN[C@H]1c1ccccc1` [Example 51, [2-methoxy-5-(2-fluoro-4-cyanophenyl)benzyl][(2S,3S)2-phenylpiperidin-3-yl]amine] here?
A: The melting point was 280 to 281 °C (dec.).

Q: Which melting point does the source give for `COc1ccc(-c2ccc(F)cc2)cc1CN[C@H]1CCCN(Cc2n[nH]c(=O)o2)[C@H]1c1ccccc1` (as salt: hydrochloride) [Example 106, (2S,3S)-1-[5(4H)-oxo-1,3,4-oxadiazol-2-yl]methyl-2-phenyl-3-[[2-methoxy-5-(4-fluorophenyl)benzyl]amino]piperidine-dihydrochloride] here?
A: The melting point was 212 to 216 °C (dec.).

Q: For `COc1ccc(-c2ccc(C#N)cc2F)cc1CN[C@H]1CC[C@@H](C)N[C@H]1c1ccccc1` [Example 112, [2-methoxy-5-(2-fluoro-4-cyanophenyl)benzyl]-[(2S,3S,6R)-6-methyl-2-phenylpiperidin-3-yl]amine], which melting point is on record?
A: Its melting point is 301 to 302 °C (dec.).

Q: With `COc1ccc(-c2ccc(Cl)cc2)cc1CN[C@H]1CCCN[C@H]1c1ccccc1` [Example 7, [2-methoxy-5-(4-chlorophenyl)benzyl][(2S,3S)-2-phenylpiperidin-3-yl]amine] as the molecule, how does the melting point read?
A: The melting point was 272 to 274 °C (dec.).

Q: Which melting point does the source give for `COc1ccc(-c2ccc(F)cc2)cc1CN[C@H]1CCCN[C@H]1c1ccccc1.Cl.Cl` here?
A: The melting point was 277 to 279 °C (dec.).
